{"source": "paper PMC8143347", "about": "“Metabolism and Interspecies Variation of IMMH-010, a Programmed Cell Death Ligand 1 Inhibitor Prodrug” (Pharmaceutics, 2021)", "key": {"PD-1/PD-L1": {"system": "PD-1/PD-L1", "conditions": "stated in introduction, source not given; read-out: PD-L1 inhibitory activity IC50; cited from earlier work"}, "[1]": {"experiment": "Metabolism in rat liver S9 fractions", "format": "in vitro ADME", "experimental": "IMMH-010 metabolism was compared in human, monkey, dog, and rat liver S9 homogenates. IMMH-010 (10 μM) was incubated with liver S9 homogenate protein (0.5 mg protein/mL) and a reduced nicotinamide adenine dinucleotide phosphate (NADPH) regenerating system in a final volume of 0.2 mL Tris-HCl buffer (50 mM, pH 7.4) containing 5 mM MgCl2. The reactions were performed in triplicate. After 2 min of preincubation at 37 °C, reactions were initiated by the addition of IMMH-010 (10 μM). The samples were collected 0, 5, 10, and 20 min after incubation, 2 volumes of acetonitrile were added to terminate the reaction. After vortexing and centrifugation, IMMH-010, YPD-29B, M3, and M4 in the supernatant were analyzed by LC-MS/MS.\n(§1) All statistics were calculated using GraphPad Prism 8.0 software (San Diego, CA, USA) designed for one-way ANOVA. Pharmacokinetic parameters were calculated with a non-compartmental analysis using WinNonlin Version 6.3 (Pharsight, Mountain View, CA, USA). ADMET predictor V10.0 (Simulations Plus, Inc., Lancaster, CA, USA) and Microsoft Excel (Microsoft, Redmond, WA, USA) were used to process the data (i.e., half-life (t1/2) and hepatic clearance (CLhep) determination). Data were expressed as means ± standard deviations (SD). Results were considered statistically significant if the p-value <0.05, <0.01 and <0.001."}, "[2]": {"experiment": "IMMH-010 stability in rat plasma", "format": "in vitro ADME", "conditions": "10 μM, 4 °C, 60 min", "experimental": "(§2) IMMH-010 hydrolysis was investigated in human, monkey, rat, and mouse plasma. IMMH-010 (1 μM) was incubated in human, monkey, or […] plasma (0.2 mL) at 37 °C for 120 min. IMMH-010 (10 μM) was incubated in rat or mouse plasma (0.2 mL) at 4 °C for 60 min. The experiments were performed in triplicate. The reactions were initiated by the addition of IMMH-010 (10 μM). After incubation, the reactions were stopped by adding 2 volumes of ice-cold acetonitrile. After vortexing and centrifuging, the concentrations of IMMH-010 and YPD-29B in the supernatant were determined by liquid chromatography with tandem mass spectrometry (LC-MS/MS). The compound olmesartan (10 μM), a substrate of paraoxonase 1, was set as the positive control."}, "[3]": {"experiment": "Plasma and tumor PK in B16F10 melanoma xenograft mice", "format": "in vivo, mouse", "conditions": "B16F10 mice, after last oral dose of IMMH-010 maleate 5 mg/kg", "experimental": "After the final dose, tumor and blood samples treated with IMMH-010 maleate (5 mg/kg) were collected over 72 h. Blood was exposed in an EP tube containing 500 mM NaF and 0.5% heparin sodium. Plasma samples were obtained by centrifugation, and tumor tissues were homogenized with 3 volumes (w/v) of saline on ice. The concentration of IMMH-010 and YPD-29B in plasma and tumor samples was quantitated by an LC-MS/MS method.\nLC-MS/MS was performed using a triple quadrupole mass spectrometer (API 4000, AB Sciex, Framingham, MA, USA) with an ultra-performance liquid chromatography system (LC-30A, Shimadzu, Kyoto, Japan). Analyst 1.6.2 software (AB Sciex) was used for data acquisition and analysis. Mobile phase A was 1 mM ammonium acetate and mobile phase B was methanol. The mobile phase was delivered with the following gradient elution profile: 0–2.8 min, 70% B; 2.9 min, 85% B; 3 min, 90% B; 3.1–6.8 min, 100% B; 6.9–12 min, 70% B. The flow rate was 0.3 mL/min, and the column oven was maintained at 35 °C. The specific transitions monitored were 641.3 → 494.2 for IMMH-010, 597 → 155 for YPD-29B, 512 → 247 for M3, and 524 → 246 for M4.\nas §1"}, "[4]": {"experiment": "Body weight in MC38 model", "experimental": "(§3) The antitumor activity of IMMH-010 was evaluated by B16F10 melanoma and MC38 colon carcinoma xenograft models. The B16F10 and MC38 cells were resuspended in saline (1.5 × 10^6 cells/0.2 mL saline) and injected subcutaneously into the right flanks of each mouse on day 0. The treated mice received once-daily oral administration of IMMH-010 maleate (1.25, 2.5, 5, and 10 mg/kg, n = 10) by oral gavage (PO) for 19 consecutive days, whereas the control mice received vehicle (0.5% carboxymethyl cellulose, n = 10). The mice in the positive control group received the anti-mouse PD-L1 antibody (696618M2, Bio X Cell, West Lebanon, NH, USA) at 10 mg/kg intraperitoneally every 3 days (n = 10). The first-line antineoplastic drug cyclophosphamide (CTX) was administered at doses of 80 and 40 mg/kg weekly in the B16F10 and MC38 models (n = 10), respectively. After the last treatment, on day 19, the mice were sacrificed, and the tumor and spleen were stripped and weighed. The tumor growth inhibition (TGI) was calculated as TGI = (1 − treatment group tumor weight/vehicle group tumor weight) × 100."}, "B16F10 melanoma": {"system": "B16F10 melanoma", "experiment": "Antitumor activity in B16F10 melanoma xenograft model", "format": "in vivo, mouse", "experimental": "as §3"}, "[5]": {"experiment": "IMMH-010 stability in mouse plasma", "format": "in vitro ADME", "conditions": "10 μM, 4 °C, 60 min", "experimental": "as §2"}, "[6]": {"conditions": "B16F10, IMMH-010 maleate 1.25 mg/kg PO once daily 19 days"}, "[7]": {"conditions": "B16F10, IMMH-010 maleate 2.5 mg/kg PO once daily 19 days"}, "[8]": {"conditions": "B16F10, IMMH-010 maleate 5 mg/kg PO once daily 19 days"}, "[9]": {"conditions": "B16F10, IMMH-010 maleate 10 mg/kg PO once daily 19 days"}}}
{"compound": "CC(C)OC(=O)[C@H](CO)NCc1cc(Cl)c(OCc2cccc(-c3ccccc3)c2Br)cc1OCc1cccnc1", "note": "[IMMH-010]", "values": [{"measurement": "IC50", "setting": "PD-1/PD-L1", "result": "10 to 100", "unit": "nM"}, {"measurement": "estimated CLhep", "setting": "[1]; from rat liver S9", "result": 58.4, "unit": "mL/min/kg"}, {"measurement": "half-life at 10 μM", "setting": "[1]; pH 7.4, rat liver S9 0.5 mg protein/mL, 10 μM, NADPH", "result": 7.1, "unit": "min"}, {"measurement": "plasma stability", "setting": "[2]", "result": "decreased time-dependently"}, {"measurement": "concentration of IMMH-010 in plasma and tumor tissues", "setting": "[3]", "result": "< 1", "unit": "ng/mL"}, {"measurement": "Body Weight (g) X ± SD Finish", "setting": "[4]; MC38, IMMH-010 maleate 1.25 mg/kg PO once daily 19 days", "result": "24.3 ± 2.1", "unit": "g"}, {"measurement": "Body Weight (g) X ± SD Start", "setting": "[4]; MC38, IMMH-010 maleate 1.25 mg/kg PO once daily", "result": "22.2 ± 0.4", "unit": "g"}, {"measurement": "Body Weight (g) X ± SD Finish", "setting": "[4]; MC38, IMMH-010 maleate 2.5 mg/kg PO once daily 19 days", "result": "25.3 ± 2.3", "unit": "g"}, {"measurement": "Body Weight (g) X ± SD Start", "setting": "[4]; MC38, IMMH-010 maleate 2.5 mg/kg PO once daily", "result": "22.0 ± 0.6", "unit": "g"}, {"measurement": "Body Weight (g) X ± SD Finish", "setting": "[4]; MC38, IMMH-010 maleate 5 mg/kg PO once daily 19 days", "result": "23.7 ± 1.8", "unit": "g"}, {"measurement": "Body Weight (g) X ± SD Start", "setting": "[4]; MC38, IMMH-010 maleate 5 mg/kg PO once daily", "result": "21.9 ± 0.8", "unit": "g"}, {"measurement": "Body Weight (g) X ± SD Finish", "setting": "[4]; MC38, IMMH-010 maleate 10 mg/kg PO once daily 19 days", "result": "25.0 ± 1.7", "unit": "g"}, {"measurement": "Body Weight (g) X ± SD Start", "setting": "[4]; MC38, IMMH-010 maleate 10 mg/kg PO once daily", "result": "21.9 ± 0.7", "unit": "g"}, {"measurement": "effect on body weight", "setting": "[4]; MC38 model, IMMH-010 maleate PO once a day for 19 days", "result": "without weight loss"}, {"measurement": "Tumor Weight (g) X ± SD", "setting": "B16F10 melanoma; [6]", "result": "1.78 ± 1.13", "unit": "g"}, {"measurement": "Tumor Weight TGI (%)", "setting": "B16F10 melanoma; [6]", "result": 23, "unit": "%"}, {"measurement": "Tumor Weight (g) X ± SD", "setting": "B16F10 melanoma; [7]", "result": "1.26 ± 0.85", "unit": "g"}, {"measurement": "Tumor Weight TGI (%)", "setting": "B16F10 melanoma; [7]", "result": 45, "unit": "%"}, {"measurement": "Tumor Weight (g) X ± SD", "setting": "B16F10 melanoma; [8]", "result": "1.39 ± 0.84", "unit": "g"}, {"measurement": "Tumor Weight TGI (%)", "setting": "B16F10 melanoma; [8]", "result": 40, "unit": "%"}, {"measurement": "Tumor Weight (g) X ± SD", "setting": "B16F10 melanoma; [9]", "result": "1.04 ± 0.66", "unit": "g"}, {"measurement": "Tumor Weight TGI (%)", "setting": "B16F10 melanoma; [9]", "result": 55, "unit": "%"}, {"measurement": "plasma stability", "setting": "[5]", "result": "decreased time-dependently"}]}
